Data from patent publication US7160992B2, “Amino-modified polysaccharides and methods of generating and using same” (Yeda Research and Development Co., Ltd., priority 2003, dated 2007).
Converted amounts (≈) assume the structure as drawn. “And” between values parts separate entries of the source, which are not always exact repeats. Equal entries are not always repeated. Where two headings read alike, the source gives them in different places.

What was measured:
TAR = details: in contrast to Tat peptide (R52) or AACs; cited from earlier work
TAR or RRE RNAs = details: cited from earlier work
CXCR4 = biological target: T1, CXCR4 (Homo sapiens, UniProt P61073); assay: Inhibition of anti-CXCR4 mAb 12G5 binding to cells, flow cytometry; assay type: cell-based; details: for reduction of 12G5 mAb binding to the cells / median fluorescence intensity (MFI) of PE-12G5 in presence of AAC: 10 μM AAC; for reduction of 12G5 mAb binding to the cells: PM1 cells, 30 min at 4° C.; for median fluorescence intensity (MFI) of PE-12G5 in presence of AAC: mAb alone 451, isotype control 30
T1 construct: endogenous in cells; host or cells: PM1 cells and PBMC
Experimental: FIGS. 11a–d are graphs depicting the binding of AACs to CXCR4 in the presence of anti CXCR4 antibody (12G5). PM1 cells were incubated with PE-conjugated isotype control mAb, PE-anti CXCR4 conjugated mAb (12G5) alone, or in the presence of the indicated AACs for 30 min at 4° C. The cells were then washed twice with PBS and analyzed by flow cytometry. The MFI values are shown in parenthesis.
Interaction of AACs with CXCR4 was determined by flow cytometry (FACScan, Becton Dickinson) as described recently (Litovchick et al., 2001, supra). Briefly, 0.5×10^6 cells were washed in ice-cold PBS containing 0.1% sodium azide (wash buffer) and incubated at 4° C. with anti-CXCR4 mAb, 12G5 (PharMingen, San Diego, Calif.) conjugated to phycoerithrine (PE), in the absence or presence of different concentrations of the AACs. After 30 min of incubation, the cells were washed with ice-cold wash buffer and fixed in PBS containing 1% paraformaldehyde. Non-specific fluorescence was assessed by using isotype-matched control. For each sample 10,000 events were acquired. Data were analyzed and processed using CellQuest™ software (Becton Dickinson).

Gram-positive bacteria = assay: Minimal inhibitory concentration, Gram-positive bacteria as a group; assay type: cell-based; details: range over susceptible Gram-positive bacteria
HIV-1IIIB wild type = assay: Inhibition of HIV-1IIIB wild type in MT2 or cMAGI cells; assay type: cell-based
Text: (§1) The cMAGI assay is based on the ability of HIV-1 TAT to transactivate the expression of an integrated β-galactosidase reporter gene driven by the HIV-LTR [Chackerian, B. et al., 1997. J Virol. 71: 3932–3939; Collins, K. B. et al., 2000. Nat. Med. 6: 475–479]. The β-galactosidase reporter has been modified to remain localized in the nucleus where it can be detected with the X-gal substrate as an intense nuclear stain within a few days of infection. The X-gal substrate used was 5-bromo-4-chloro-3-indoyl-beta-D-galactopyranoside. HIV1IIIB was propagated by subculture in MT2 as described previously [Litovchick (2001) Supra]. Aliquots of cell-free culture supernatants were used as viral inoculum. […] The cytopathic effects of the viral infection of MT2 cells were analyzed by microscopic assessment of syncytium formation. These latter data were obtained by analysis of duplicate samples by two independent observers. HIV-1 infection of cMAGI cells was determined by counting the number of HIV-1 infected cells (stained blue).

CCR5 = biological target: T2, CCR5 (Homo sapiens, UniProt P51681); details: PHA stimulated peripheral blood lymphocytes; cited from earlier work
T2 construct: in PHA stimulated peripheral blood lymphocytes (PBL); host or cells: PHA stimulated peripheral blood lymphocytes (PBL)

E. faecalisr = assay: Minimal inhibitory concentration, serial two-fold dilutions in TSB; assay type: cell-based
S. epidermidis = assay: as above; assay type: cell-based
cMAGI cells = assay: Competition between FITC-labelled AACs and RANTES; assay type: cell-based; details: 2.5 mM RANTES
Experimental: Competition between FITC labelled AACs (1 mM) and RANTES (2.5 mM, Pepro Tech Inc., New Jersey, USA) was effected in 2×10^5 cMAGI cells. Following 30 min of incubation, cells were washed with ice-cold wash buffer and analysed by flow cytometry as described above.

RRE IIB RNA = assay: Fluorescence anisotropy: RhdRev binding and AAC competition for RRE IIB RNA; set-up: species or system HIV-1
[1] = tested on: U38, PM1, H9 cells and PBMC; assay: Cellular uptake of AAC-FITC fluorescent probes, fluorescence microscopy; assay type: cell-based; details: 0.5 μM, 10 minutes of incubation
Experimental: Images were obtained using a Zeiss Axiophot microscope.
Cellular uptake using AAC fluorescent probes—U38, PM1, H9 cells and PBMC(10^5) were incubated for 20 minutes at room temperature in 100 μl RPMI 1640 medium (Gibco-BRL, Life-Technologies, UK) including AAC-FITC derivatives as indicated at a final concentration of 0.5 μM. Cells were washed twice, resuspended in 100 μl medium and analyzed with a Zeiss Axiophot fluorescent microscope.

B. subtilis = assay: Minimal inhibitory concentration, serial two-fold dilutions in TSB; assay type: cell-based
ICR (CD-1) mice = assay: Acute intravenous toxicity of NeoR6 in mice; assay type: in vivo
Experimental: Injection volumes applied ranged from 4–10 ml/kg
Observation of clinical signs post-NeoR6 injection—On the day of injection, careful clinical examinations were carried out continuously during the first 90 minutes post-injection. Thereafter, animals were inspected at least once a day for 14 consecutive days. Observations included changes in the skin and fur, eyes and mucous membranes, respiratory, circulatory, autonomic and central nervous systems, somatomotor activity and behavior pattern with particular attention to occurrence of tremors, convulsions, salivation, diarrhea, lethargy, sleep and coma.
Necropsy and Gross Pathology—All test animals, including decedents were subjected to gross necropsy. At necropsy all animals were thoroughly examined for abnormality of tissues or organs. All major body cavities were opened, larger organs were sectioned and the gastro-intestinal tract was opened at intervals for examination of the mucosal surfaces. The normal appearance of major organs was confirmed for each animal and any gross pathological changes or abnormalities were described.

CD4 = biological target: T3, CD4 (Homo sapiens, UniProt P01730); details: PHA stimulated peripheral blood lymphocytes; cited from earlier work
T3 construct: in PHA stimulated peripheral blood lymphocytes (PBL); host or cells: PHA stimulated peripheral blood lymphocytes (PBL)

S. aureus = assay: Minimal inhibitory concentration, serial two-fold dilutions in TSB; assay type: cell-based
P. aeruginosa = assay: as above; assay type: cell-based
E. coli = assay: as above; assay type: cell-based
TAR RNA = assay: Fluorescence anisotropy: RhdRev binding and AAC competition for TAR RNA; set-up: species or system HIV-1
[2] = tested on: lymphocytes, PBMC and neurons; details: cited from earlier work
[3] = tested on: NeoR6 resistant HIV-1 isolates; assay: Inhibition of NeoR6 resistant HIV-1 isolates in MT2 or cMAGI cells; assay type: cell-based
Text: as §1
Culture fluids were replaced […] weekly with fresh medium containing an appropriate drug concentration. […] From the final cycle of each experiment the resistant virus was propagated as described above.

HIV-1 clade C = assay: Replication of HIV-1 clade C in MT2 cells, tetrazolium viability; assay type: cell-based; details: present throughout infection or only the first two hours; NeoR6 2–20 μM, R3G 5–40 μM
Experimental: Infected cells were washed, seeded in 96-well plate (5×10^4 cells per well) and incubated for 4 days in the absence or presence of various drug concentrations, until syncytia were observed (>25% ctu). Cell viability was measured by tetrazolium-based colorimetric method. The results shown are mean ±standard deviation of triplicates. Circles denote the presence of AACs during the infection step and after the cells were washed; Squares denote the presence of AACs only during the first 2 hours prior to washing.

HIV-1 isolates = details: Cabrera et al., 2002; cited from earlier work
[4] = HIV-1IIIB wt, mean and standard deviation of three separate experiments, read-out: EC50, Wild-type
[5] = NeoR6 resistant isolates after 25 passages, mean and standard deviation of three separate experiments, read-out: EC50, NeoR6RES

T1 sequence (P61073 whole entry): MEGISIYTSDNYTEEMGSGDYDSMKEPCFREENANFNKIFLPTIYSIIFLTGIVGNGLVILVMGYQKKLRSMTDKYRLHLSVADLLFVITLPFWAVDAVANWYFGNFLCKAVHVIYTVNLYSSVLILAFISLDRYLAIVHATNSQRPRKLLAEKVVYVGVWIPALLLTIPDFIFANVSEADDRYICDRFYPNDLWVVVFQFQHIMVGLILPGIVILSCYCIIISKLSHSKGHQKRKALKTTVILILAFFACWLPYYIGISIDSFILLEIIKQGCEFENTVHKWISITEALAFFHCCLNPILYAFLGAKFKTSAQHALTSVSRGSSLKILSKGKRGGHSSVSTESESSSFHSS
T2 sequence (P51681 whole entry): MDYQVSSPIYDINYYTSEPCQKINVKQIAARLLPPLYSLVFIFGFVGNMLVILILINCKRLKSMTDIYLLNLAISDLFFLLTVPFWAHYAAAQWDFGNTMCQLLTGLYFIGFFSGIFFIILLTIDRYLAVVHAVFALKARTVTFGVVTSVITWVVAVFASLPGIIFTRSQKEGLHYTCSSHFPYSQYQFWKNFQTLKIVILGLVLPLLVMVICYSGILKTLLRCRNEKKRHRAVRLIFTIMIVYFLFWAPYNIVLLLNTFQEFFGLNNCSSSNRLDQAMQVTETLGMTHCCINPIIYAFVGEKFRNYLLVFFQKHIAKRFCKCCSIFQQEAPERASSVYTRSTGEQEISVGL

N=C(N)NCCCC(=O)NCC1OC(OC2C(NC(=O)CCCNC(=N)N)CC(NC(=O)CCCNC(=N)N)C(OC3OC(CO)C(O)C(NC(=O)CCCNC(=N)N)C3O)C2O)C(O)C(O)C1O (stereo not drawn) [GB4K, kanamycine A conjugated to four γ-guadinno butiric acid]
protection of the bulge region of TAR from RNase A cleavage (TAR): cannot protect the bulge region of TAR from RNase A cleavage
affinity to TAR or RRE RNAs (in words) (TAR or RRE RNAs): very low affinity

NC(N)=NCCC[C@H](N)C(=O)NC[C@@H]1OC(O[C@H]2[C@@H](O)[C@H](O[C@@H]3[C@@H](O)[C@H](NC(=O)[C@@H](N)CCCN=C(N)N)C[C@H](NC(=O)[C@@H](N)CCCN=C(N)N)[C@H]3O[C@H]3O[C@H](CNC(=O)[C@@H](N)CCCN=C(N)N)[C@@H](O)[C@H](O)[C@H]3NC(=O)[C@@H](N)CCCN=C(N)N)O[C@@H]2CO)[C@H](NC(=O)[C@@H](N)CCCN=C(N)N)[C@@H](O)[C@@H]1O (stereo partly drawn) [NeoR6, Neomycin hexa-arginine conjugate]
reduction of 12G5 mAb binding to the cells (CXCR4): 90%
median fluorescence intensity (MFI) of PE-12G5 in presence of AAC (CXCR4): 76
MIC values, Gram-positive bacteria (Gram-positive bacteria): 0.78 to 6.25 µg/mL
EC50 (HIV-1IIIB wild type; [4]): 1900 nM
inhibition of binding of 2D7, a mAb directed to CCR5 (CCR5): neither R3G nor R4K or NeoR6 inhibit the binding
MIC (mg/L) (E. faecalisr): ≧200 mg/L
MIC (S. epidermidis): 0.78 µg/mL (≈ 0.503 µM)
effect of RANTES on uptake of FITC derivative (cMAGI cells): did not affect uptake
Kd (RRE IIB RNA; competition of AACs with RhdRev (10 nM) for RRE IIB RNA (20 nM) binding, 85 mM NaCl): 23 nM and 23.3 nM
IC50 (RRE IIB RNA; competition of AACs with RhdRev for RRE IIB RNA binding): 72.7 ± 10.1 nM
cellular uptake of FITC-labeled AAC by PM1 cells [1]: uptaken by PM1 cells
MIC (B. subtilis): 1.56 µg/mL (≈ 1.01 µM)
adverse effects (ICR (CD-1) mice; 50 mg/kg as 2 successive injections, interdosing interval of 3 hours): did not cause any adverse effects other than a very transient reduction in respiratory rate and spontaneous motor activity
weight gain (in words) (ICR (CD-1) mice; 14-day observation period, all mice except 2 females (10 or 30 mg/kg)): normal mode of weight gain
maximum tolerated dose (MTD) (ICR (CD-1) mice; acute IV administration): 30 to 35 mg/kg
pathological findings at necropsy (ICR (CD-1) mice; decedent and surviving animals): no pathological findings
Weight Gain (gr.) (Day 1–15) (ICR (CD-1) mice; group 2F, 1 female, 15 mg/kg single bolus): 4.3 gr.
Weight Gain (gr.) (Day 1–15) (ICR (CD-1) mice; group 3F, 1 female, 25 mg/kg single bolus): 5.3 gr.
Weight Gain (gr.) (Day 1–15) (ICR (CD-1) mice; group 4F, 2 females, 30 mg/kg single bolus, one survivor): 1.6; — gr.
clinical signs (ICR (CD-1) mice; single IV 30 and 35 mg/kg, confined to the first 10 min after dosing): respiratory and motoric irregularities
mortality (ICR (CD-1) mice; single female mouse, 30 mg/kg IV): died within the first five minutes post-injection
reaction to treatment (ICR (CD-1) mice; single intravenous administration, 10, 15 and 25 mg/kg): No obvious reaction to treatment
toxicity when given intravenously (ICR (CD-1) mice; two single doses of 25 mg/kg of body weight over the course of 2 hours): non-toxic
inhibition of binding of anti CD4 antibody (Leu 3a) (CD4): neither R3G nor R4K or NeoR6 inhibit the binding
MIC (S. aureus): 6.25 µg/mL (≈ 4.03 µM)
MIC (P. aeruginosa): 100 µg/mL (≈ 64.4 µM)
MIC (E. coli): 100 µg/mL (≈ 64.4 µM)
Kd (TAR RNA; competition of AACs with RhdRev (10 nM) for TAR RNA (20 nM) binding, 85 mM NaCl): 5 nM
IC50 (TAR RNA; competition of AACs with RhdRev for TAR RNA binding): 19.9 ± 2.7 nM
competition with RhdRev for TAR RNA binding (in words) (TAR RNA; up to 20 μM of AAC): efficiently competed
accumulation in cells [2]: accumulate in different cell types

CNC(C)C1CCC(NC(=O)C(N)CCCNC(=N)N)C(OC2C(NC(=O)C(N)CCCNC(=N)N)CC(NC(=O)C(N)CCCNC(=N)N)C(OC3OCC(C)(O)C(NC)C3O)C2O)O1 (stereo not drawn) [R3G, tri-arginine gentamycin C1 conjugate, reference compound]
reduction of 12G5 mAb binding to the cells (CXCR4): 84%
median fluorescence intensity (MFI) of PE-12G5 in presence of AAC (CXCR4): 89
EC50 (HIV-1IIIB wild type; [4]): 4100 ± 2400 nM
inhibition of binding of 2D7, a mAb directed to CCR5 (CCR5): neither R3G nor R4K or NeoR6 inhibit the binding
inhibition of binding of anti CD4 antibody (Leu 3a) (CD4): neither R3G nor R4K or NeoR6 inhibit the binding
EC50 [3, 5]: 21000 ± 8800 nM
times more resistant than the wild type virus ([3]; NeoR6 resistant isolates, following 25 passages): ~5
inhibition of viral proliferation (in words) (HIV-1 clade C): could inhibit viral proliferation
accumulation in cells [2]: accumulate in different cell types

SDF-1α
anti-HIV-1 EC50, fold lower than that of NeoR6 (HIV-1 isolates): ~70 fold
inhibition of PE-12G5 binding to PM1 cells by SDF-1α (CXCR4; 62.5 and 125 nM SDF-1α, control): inhibited significantly
EC50 (HIV-1IIIB wild type; [4]): 200 ± 50 nM
EC50 (HIV-1IIIB wild type; wt HIV-1 isolate, text of b338): 1 µg/mL
EC50 ([3]; NeoR6 resistant HIV-1 isolates, text of b338): 1 µg/mL
EC50 [3, 5]: 180 ± 70 nM
